The values that follow come from patent US20260374773A1, “MULTI-CYCLIC IRAK AND FLT3 INHIBITING COMPOUNDS AND USES THEREOF” (CHILDREN'S HOSPITAL MEDICAL CENTER, priority 2022, published 2026).

The target of one test is IRAK1 (Homo sapiens, UniProt P51617). Briefly: DiscoverX KINOMEscan active site-directed competition binding, IRAK1. The note with it: no ATP.
Description: (§1) Kinase binding data were obtained for various exemplary compounds prepared according to Examples 1-8 using the DiscoverX KINOMEscan® active site-directed competition binding site-directed assay protocol described below. […] As a result, the data report thermodynamic interaction affinities (Kd values), rather than IC50 values that are dependent on ATP concentrations. The assay uses a DNA-tagged version of the protein kinase, and an immobilized ligand bound to a solid support. Compounds that directly or indirectly prevent kinase binding to the immobilized ligand reduce the amount of kinase captured on the solid support, which is detected using an ultra-sensitive qPCR method. Affinity constants reported from the assay have been reported to be independent of the immobilized ligand used that is coupled to the solid support (See supplemental information in Fabian, M. A. et. al., (2005) Nat. Biotechnol. 23, 329-336; Wodicka, L. M. et. al., (2010) Chem. Biol. 17, 1241-1249.)
(§2) Kinase-tagged T7 phage strains were prepared in an E. coli host derived from the BL21 strain. E. coli were grown to log-phase and infected with T7 phage and incubated with shaking at 32 °C until lysis. The lysates were centrifuged and filtered to remove cell debris. The remaining kinases were produced in HEK-293 cells and subsequently tagged with DNA for qPCR detection. Streptavidin-coated magnetic beads were treated with biotinylated small molecule ligands for 30 minutes at room temperature to generate affinity resins for kinase assays. The liganded beads were blocked with excess biotin and washed with blocking buffer (SeaBlock (Pierce), 1% BSA, 0.05% Tween 20, 1 mM DTT) to remove unbound ligand and to reduce non-specific binding. […] Test compounds were prepared as 111x stocks in 100% DMSO. Kds were determined using an 11-point 3-fold compound dilution series with three DMSO control points. All compounds for Kd measurements are distributed by acoustic transfer (non-contact dispensing) in 100% DMSO. The compounds were then diluted directly into the assays such that the final concentration of DMSO was 0.9%. All reactions were performed in polypropylene 384-well plates. Each was a final volume of 0.02 mL. The assay plates were incubated at room temperature with shaking for 1 hour and the affinity beads were washed with wash buffer (1×PBS, 0.05% Tween 20). The beads were then re-suspended in elution buffer (1×PBS, 0.05% Tween 20, 0.5 μM nonbiotinylated affinity ligand) and incubated at room temperature with shaking for 30 minutes. The kinase concentration in the eluates was measured by qPCR. Binding constants (Kds) were calculated with a standard dose-response curve using the Hill equation. The Hill Slope was set to −1. Curves were fitted using a non-linear least square fit with the Levenberg-Marquardt algorithm.
as §1, with “9-12” for “1-8”
(§3) Kinase-tagged T7 phage strains were prepared in an E. coli host derived from the BL21 strain. […]

Another test concerns the target T1, FLT3 R834Q (Homo sapiens, UniProt P36888, R834Q).
T1 sequence (P36888 27-993 R834Q): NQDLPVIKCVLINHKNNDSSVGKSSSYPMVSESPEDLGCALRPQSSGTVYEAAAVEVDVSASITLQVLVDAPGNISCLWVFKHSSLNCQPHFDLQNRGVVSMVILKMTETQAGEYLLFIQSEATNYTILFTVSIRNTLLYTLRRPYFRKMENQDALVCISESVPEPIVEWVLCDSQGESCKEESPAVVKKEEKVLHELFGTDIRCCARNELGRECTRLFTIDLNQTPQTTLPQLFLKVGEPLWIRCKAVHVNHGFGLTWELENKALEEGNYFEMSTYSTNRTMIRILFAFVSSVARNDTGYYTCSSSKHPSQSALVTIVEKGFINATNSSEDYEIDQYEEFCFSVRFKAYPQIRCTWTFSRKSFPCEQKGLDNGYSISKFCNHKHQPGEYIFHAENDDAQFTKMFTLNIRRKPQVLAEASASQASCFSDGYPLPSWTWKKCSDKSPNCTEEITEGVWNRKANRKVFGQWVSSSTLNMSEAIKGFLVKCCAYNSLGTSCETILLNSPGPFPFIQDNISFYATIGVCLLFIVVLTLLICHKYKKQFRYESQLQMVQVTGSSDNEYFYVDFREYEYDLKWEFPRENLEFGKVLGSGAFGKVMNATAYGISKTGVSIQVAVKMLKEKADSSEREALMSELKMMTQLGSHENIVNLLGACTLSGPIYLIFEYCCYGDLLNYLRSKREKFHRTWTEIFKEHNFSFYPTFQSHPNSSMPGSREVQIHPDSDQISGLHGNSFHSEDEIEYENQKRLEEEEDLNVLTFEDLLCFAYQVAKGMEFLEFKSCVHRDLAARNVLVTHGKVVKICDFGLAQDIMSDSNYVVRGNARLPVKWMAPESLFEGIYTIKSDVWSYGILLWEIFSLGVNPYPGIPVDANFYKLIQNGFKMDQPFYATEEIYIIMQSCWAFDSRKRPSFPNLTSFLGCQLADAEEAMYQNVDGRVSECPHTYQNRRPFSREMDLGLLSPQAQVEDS
Briefly: DiscoverX KINOMEscan active site-directed competition binding, FLT3 R834Q. The settings on record: no ATP.
Description: as §1, §2
as §1, with “9-12” for “1-8”
as §3

Sequence of IRAK1 (P51617 whole entry): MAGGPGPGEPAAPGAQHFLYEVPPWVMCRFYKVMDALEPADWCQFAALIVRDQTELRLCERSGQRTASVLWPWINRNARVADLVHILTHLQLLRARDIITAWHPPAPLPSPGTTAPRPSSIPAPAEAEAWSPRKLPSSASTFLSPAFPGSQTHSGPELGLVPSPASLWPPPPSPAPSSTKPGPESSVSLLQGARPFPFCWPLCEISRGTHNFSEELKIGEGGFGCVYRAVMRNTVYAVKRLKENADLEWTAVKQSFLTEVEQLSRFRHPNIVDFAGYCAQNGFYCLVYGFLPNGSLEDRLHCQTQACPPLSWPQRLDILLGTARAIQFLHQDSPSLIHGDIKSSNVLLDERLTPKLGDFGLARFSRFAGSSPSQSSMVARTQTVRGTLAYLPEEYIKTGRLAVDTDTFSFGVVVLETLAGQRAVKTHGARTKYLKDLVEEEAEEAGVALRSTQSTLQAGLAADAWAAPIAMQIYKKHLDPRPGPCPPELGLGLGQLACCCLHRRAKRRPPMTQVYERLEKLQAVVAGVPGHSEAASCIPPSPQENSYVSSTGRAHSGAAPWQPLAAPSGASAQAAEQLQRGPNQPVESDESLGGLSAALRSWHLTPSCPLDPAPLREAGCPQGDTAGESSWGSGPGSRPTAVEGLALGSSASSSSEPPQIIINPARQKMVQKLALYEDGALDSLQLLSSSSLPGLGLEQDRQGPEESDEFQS

By Kd is commonly meant a measure of binding affinity in units of concentration. Higher therefore signals lower affinity. In the case of `COc1cn2ncc(-c3nc(N[C@@H]4CCCNC4)ncc3F)c2nc1C1CC1` [Compound 14a, (R)-4-(5-cyclopropyl-6-methoxypyrazolo[1,5-a]pyrimidin-3-yl)-5-fluoro-N-(piperidin-3-yl)pyrimidin-2-amine], the Kd at IRAK1 (Table 18) and at FLT3 R834Q (Table 19) was below 170 pM in each case.
In the case of `COc1cn2ncc(-c3nc(N[C@H]4CNCC[C@@H]4F)c(C#N)cc3F)c2nc1C(C)(C)O` [Compound 10, 5-fluoro-2-(((3S,4S)-4-fluoropiperidin-3-yl)amino)-6-(5-(2-hydroxypropan-2-yl)-6-methoxypyrazolo[1,5-a]pyrimidin-3-yl)nicotinonitrile], the Kd at IRAK1 (Table 12) was 810 pM; on FLT3 R834Q (Table 13), 2200 pM.
For `COc1cn2ncc(-c3nc(N[C@H]4CNCC[C@@H]4F)c(C#N)cc3F)c2nc1C1CC1` [Compound 7, 6-(5-cyclopropyl-6-methoxypyrazolo[1,5-a]pyrimidin-3-yl)-5-fluoro-2-(((3S,4S)-4-fluoropiperidin-3-yl)amino)nicotinonitrile], in that order: below 170 pM and below 170 pM.
As to `COc1cn2ncc(-c3nc(N[C@H]4CNCC[C@@H]4F)ncc3F)c2nc1C(C)(C)O` [Compound 6a, 2-(3-(5-fluoro-2-(((3S,4S)-4-fluoropiperidin-3-yl)amino)pyrimidin-4-yl)-6-methoxypyrazolo[1,5-a]pyrimidin-5-yl)propan-2-ol], the figures for the Kd at IRAK1 (Table 18) and at FLT3 R834Q (Table 19) were 280 pM and 3800 pM, respectively.
For `COc1cn2ncc(-c3nc(N[C@H]4CNCC[C@@H]4F)ncc3F)c2nc1C1CC1` [Compound 15a, 4-(5-cyclopropyl-6-methoxypyrazolo[1,5-a]pyrimidin-3-yl)-5-fluoro-N-((3S,4S)-4-fluoropiperidin-3-yl)pyrimidin-2-amine], in that order: below 170 pM and below 170 pM.
Regarding `COc1cn2ncc(-c3cncc(N[C@H]4CNCC[C@@H]4F)n3)c2nc1C1CC1` [Compound 12a, 6-(5-cyclopropyl-6-methoxypyrazolo[1,5-a]pyrimidin-3-yl)-N-((3S,4S)-4-fluoropiperidin-3-yl)pyrazin-2-amine], the results for the Kd on IRAK1 (Table 18) and on FLT3 R834Q (Table 19) were 780 pM and 350 pM, respectively.
Turning to `COc1cn2ncc(-c3nc(N[C@H]4CNCC[C@@H]4F)c(F)cc3F)c2nc1C(C)(C)O` [Compound 13, 2-(3-(3,5-difluoro-6-(((3S,4S)-4-fluoropiperidin-3-yl)amino)pyridin-2-yl)-6-methoxypyrazolo[1,5-a]pyrimidin-5-yl)propan-2-ol], the Kd was 270 pM at IRAK1 (Table 12) and 3300 pM on FLT3 R834Q (Table 13).
For the compound `COc1cn2ncc(-c3ccnc(N[C@H]4CNCC[C@@H]4F)n3)c2nc1C1CC1` [Compound 7a, 4-(5-cyclopropyl-6-methoxypyrazolo[1,5-a]pyrimidin-3-yl)-N-((3S,4S)-4-fluoropiperidin-3-yl)pyrimidin-2-amine], the Kd on IRAK1 (Table 18) stood at 530 pM; on FLT3 R834Q (Table 19), 430 pM.
